Assay results taken from patent US12643918B2, “Thiadiazolone derivatives and their use as AMPK agonists for the treatment of diabetes and related disorders” (Betagenon AB, priority 2020, dated 2026).
Values after ≈ are worked out from the molar mass of the structure shown. “Also recorded” adds a separate entry of the source. Like-named read-outs stand apart in the source and are kept apart here. Each block holds one compound with its values, some of them ahead of it.

How the values were obtained:
[1] = Stability of compounds in USP/phosphate buffer pH 7.40; assay type: physicochemical; details: for % remaining compared to 0.0 min: Phosphate Buffer pH 7.40, 37° C., 5 μM; for Stability compared to Compound 1 (in words): mildly basic solutions (pH 7.4)
Procedure: 5 μM solutions of Compounds 1, 3 and 5 in USP buffer (pH: 7.40) were prepared with 5 mM DMSO stock solutions.

[2] = Single dose oral pharmacokinetic study of Compounds 1 and 3 in Sprague Dawley rats; assay type: in vivo
Procedure: 10.0 mL of 2% w/v methyl cellulose solution in phosphate buffer (pH 7.5) was added to a 100 mL conical flask along with 1 g of 2 mm glass beads. The solution was vigorously stirred on a magnetic stirrer. 100 mg of Compound 1 was slowly added to the solution, and the solution was vigorously stirred for approximately 1 h. The pH of the formulation was measured to be 7.49. Each formulation was freshly prepared prior to administration to the animals. The final concentration of Compound 1 in of the formulation was 10 mg/mL. The formulation was administered at 5 mL/kg body weight.
10.0 mL of 2% w/v methyl cellulose solution in phosphate buffer (pH 7.5) was added to a 100 mL of conical flask together with 1 g of 2 mm glass beads. The solution was vigorously stirred on a magnetic stirrer. 134 mg of Compound 3 was slowly added to the solution, and the solution was vigorously stirred for approximately 1 h. The pH of the formulation was measured to be 7.44. Each formulation was freshly prepared prior to administration to the animals. The final concentration of Compound 3 in the formulation was 13.4 mg/mL, which is equivalent to 10 mg/mL of Compound 1. The formulation was administered at 5 mL/kg body weight.
The doses of 50 mg/kg and 67 mg/kg b.w. for Compound 1 and Compound 3, respectively, were selected for comparison of equimolar doses.
Adult healthy male Sprague Dawley rats aged 9 to 11 weeks were used for experimentation after a minimum three days of acclimatisation. Fed state animals were administered the formulation of Compound 1 or Compound 3 orally via gavage at a dose of 50 mg/kg or 67 mg/kg body weight, respectively.
Under mild isoflurane anesthesia, blood specimens were collected by retro-orbital puncture method using capillary tubes into pre-labeled tubes containing anticoagulant (K2EDTA: 2 mg/mL blood) during the next 72 hours post-dosing, as detailed in Table 6. For blood sampling at multiple time points, the right and left eyes were used alternatively. Collected blood specimens were centrifuged at 6000 rpm, 4° C. for 10 minutes and the plasma samples were separated and stored at −80° C. until analysis.

[3] = system: AMPK; assay: Activation of AMPK: Western blot of p-T172 AMPK in INS-1E insulinoma cells; assay type: cell-based; details: for ratio between p-T172 AMPK and non-phosphorylated AMPK: INS-1E cells, control = 1.00; for Phosphorylation of AMPK (T172) / AMPK activation (in words): cultured INS-1E cells, Western blot
Procedure: INS-1E cells were cultivated as described in Steneberg et al., JCI Insight. 2018; 3(12):e99114. https://doi.org/10.1172/jci.insight.99114, using 5% instead of 10% fetal bovine serum when plated for treatment.
Compound 3 was dissolved at 10 mM in DMSO and frozen at −20° C.
Compound 5 was dissolved at 10 mM in a 50:50 water/DMSO mixture, incubated for 15 minutes at room temperature in ultrasonic bath (VWR ultrasonic cleaner), and stored at room temperature.
The INS-1E cells were treated in serum free medium with increasing doses of Compounds 3 and 5 for 4 and 16 hours, respectively, in accordance with the methods described in Steneberg et al., JCI Insight. 2018; 3(12):e99114. https://doi.org/10.1172/jci.insight.99114.
Western blot analysis of the INS-1E cells was performed as described in Steneberg et. al., JCI Insight. 2018; 3(12):e99114. https://doi.org/10.1172/jci.insight.99114. The cell lysates were passed through a 30-gauge needle, ˜8-times and centrifuged for 10 min at +4° C. at 14000 rpm. Quantified values for AMPKα, and phosphorylated-T172 AMPKα, were normalized toward the quantified values for β-Actin.

[4] = Solubility of compounds at different pH; assay type: physicochemical; details: for solubility at 2 h / solubility at 20 h: 30 °C, thermodynamic from solid, read-out: Absolute Solubility; for solubility at 2 h: 2 hours incubation; for solubility at 20 h: 20 hours incubation
Procedure: Approximately 5 mg of each test compound (Compounds 1 and 5) was weighed in duplicate, and each weighed sample was transferred to a separate centrifuge tube containing 5 mL of the respective buffer. All the tubes were tightly stoppered and agitated at a constant rate at 30±1° C. using an orbital shaker.
[…] 50 μL of the buffer solution from each removed tube was transferred into a 10 mL tube and made up to the mark with diluent. Then 2.5 mL of the supernatant of each tube was transferred into a 50 mL tube and made up to […].
The nominal concentration of the solution in each 50 mL tube was 5 μg/mL.
Linearity solutions of 40 ng/mL to 10000 ng/mL were plotted.

[5] = mice, Das et al. Reg Anesth Pain Med 2019, cited from earlier work
[6] = pH 4.5, aqueous buffer, Acetate Buffer, pH 4.50
[7] = pH 7.4, aqueous buffer, Phosphate Buffer, pH 7.40
[8] = pH 9.2, aqueous buffer, Alkaline Borate Buffer, pH 9.20
[9] = plasma Compound 1 after oral Compound 1, 50 mg/kg b.w., fed male rats

% remaining compared to 0.0 min ([1]; 0.0 min): 100.00%
% remaining compared to 0.0 min ([1]; 15 min): 86.96%
% remaining compared to 0.0 min ([1]; 30 min): 93.61%
% remaining compared to 0.0 min ([1]; 60 min): 88.74%
% remaining compared to 0.0 min ([1]; 120 min): 75.40%
Stability compared to Compound 1 (in words) [1]: comparable stability to Compound 1
Increase in systemic exposure of Compound 1 after oral Compound 3 compared to administration of Compound 1 ([2]; equimolar oral doses, rats): two-fold
Structure (SMILES): O=C(O)CCC(=O)OCn1c(=NC(=O)c2ccc(Cl)cc2)sn(Cc2ccc(Cl)cc2)c1=O (stereo in doubt) [Compound 3, 4-({(5Z)-5-[(4-chlorobenzoyl)imino]-2-[(4-chlorophenyl)methyl]-3-oxo-1,2,4-thiadiazolidin-4-yl}methoxy)-4-oxobutanoic acid]
ratio between p-T172 AMPK and non-phosphorylated AMPK ([3]; 2.5 μM, 4 h, 0.1% DMSO): 1.62
ratio between p-T172 AMPK and non-phosphorylated AMPK ([3]; 5 μM, 4 h, 0.1% DMSO): 1.88
ratio between p-T172 AMPK and non-phosphorylated AMPK ([3]; 10 μM, 4 h, 0.1% DMSO): 2.95
Phosphorylation of AMPK (T172) / AMPK activation (in words) [3]: increase phosphorylation of AMPK in a dose-dependent manner; also recorded: increase phosphorylated-T172 AMPK in a dose-dependent manner

% remaining compared to 0.0 min ([1]; 0.0 min): 100.00%
% remaining compared to 0.0 min ([1]; 15 min): 103.92%
% remaining compared to 0.0 min ([1]; 30 min): 107.58%
% remaining compared to 0.0 min ([1]; 60 min): 107.88%
% remaining compared to 0.0 min ([1]; 120 min): 97.30%
Stability compared to Compound 1 (in words) [1]: comparable stability to Compound 1
solubility at 2 h [4, 6]: 15 µg/mL
solubility at 20 h [4, 6]: 15 µg/mL
solubility at 2 h [4, 7]: 119 µg/mL
solubility at 20 h [4, 7]: 98 µg/mL
solubility at 2 h [4, 8]: 720 µg/mL
solubility at 20 h [4, 8]: 1240 µg/mL
solubility at 2 h ([4]; Ultrapure water): 419 µg/mL
solubility at 20 h ([4]; Ultrapure water): 36 µg/mL
Solubility relative to Compound 1 ([4]; basic solution): up to 30 times
Solubility compared to Compound 1 (in words) ([4]; basic solutions (pH>7) and mildly acidic conditions): higher solubility compared to Compound 1
Structure (SMILES): O=C(/N=c1\sn(Cc2ccc(Cl)cc2)c(=O)n1COP(=O)([O-])[O-])c1ccc(Cl)cc1.[Na+].[Na+] [Compound 5, disodium {(5Z)-5-[(4-chlorobenzoyl)imino]-2-[(4-chlorophenyl)methyl]-3-oxo-1,2,4-thiadiazolidin-4-yl}methyl phosphate]
ratio between p-T172 AMPK and non-phosphorylated AMPK ([3]; 2.5 μM, 16 h, 0.05% DMSO): 1.29
ratio between p-T172 AMPK and non-phosphorylated AMPK ([3]; 5 μM, 16 h, 0.05% DMSO): 1.62
ratio between p-T172 AMPK and non-phosphorylated AMPK ([3]; 10 μM, 16 h, 0.05% DMSO): 3.21
Phosphorylation of AMPK (T172) / AMPK activation (in words) ([3]; phosphate): increase phosphorylation of AMPK in a dose-dependent manner; also recorded: increase phosphorylated-T172 AMPK in a dose-dependent manner

% remaining compared to 0.0 min ([1]; 0.0 min): 100.00%
% remaining compared to 0.0 min ([1]; 15 min): 97.62%
% remaining compared to 0.0 min ([1]; 30 min): 101.31%
% remaining compared to 0.0 min ([1]; 60 min): 99.41%
% remaining compared to 0.0 min ([1]; 120 min): 106.18%
concentration at 1 h ([2]; male, Sprague Dawley, rat, plasma, 50 mg/kg b.w., after oral Compound 1, 50 mg/kg, 1.00 h): 4240 ng/mL
concentration at 2 h ([2]; male, Sprague Dawley, rat, plasma, 50 mg/kg b.w., after oral Compound 1, 50 mg/kg, 2.00 h): 7990 ng/mL
concentration at 4 h ([2]; male, Sprague Dawley, rat, plasma, 50 mg/kg b.w., after oral Compound 1, 50 mg/kg, 4.00 h): 14000 ng/mL
concentration at 6 h ([2]; male, Sprague Dawley, rat, plasma, 50 mg/kg b.w., after oral Compound 1, 50 mg/kg, 6.00 h): 17000 ng/mL
concentration at 8 h ([2]; male, Sprague Dawley, rat, plasma, 50 mg/kg b.w., after oral Compound 1, 50 mg/kg, 8.00 h): 19300 ng/mL
concentration at 24 h ([2]; male, Sprague Dawley, rat, plasma, 50 mg/kg b.w., after oral Compound 1, 50 mg/kg, 24.00 h): 9440 ng/mL
concentration at 0 h ([2]; male, Sprague Dawley, rat, plasma, after oral Compound 1, 50 mg/kg, 0.00 h): 0 ng/mL
concentration at 0.25 h ([2]; male, Sprague Dawley, rat, plasma, after oral Compound 1, 50 mg/kg, 0.25 h): 620 ng/mL
concentration at 0.5 h ([2]; male, Sprague Dawley, rat, plasma, after oral Compound 1, 50 mg/kg, 0.50 h): 1980 ng/mL
concentration at 48 h ([2]; male, Sprague Dawley, rat, plasma, after oral Compound 1, 50 mg/kg, 48.00 h): 720 ng/mL
concentration at 72 h ([2]; male, Sprague Dawley, rat, plasma, after oral Compound 1, 50 mg/kg, 72.00 h): 0 ng/mL
AUCextrap [2, 9]: 2.33 ± 1.74%
AUCinf [2, 9]: 458.31 ± 154.77 µg·h/mL
AUClast [2, 9]: 449.40 ± 157.75 µg·h/mL
Cmax [2, 9]: 19600 ± 5540 ng/mL
MRTlast [2, 9]: 14.78 ± 0.68 h
T1/2 [2, 9]: 8.42 ± 1.47 h
Tmax [2, 9]: 7.33 ± 1.16 h
solubility at 2 h [4, 8]: 29 µg/mL (≈ 76.3 µM)
solubility at 20 h [4, 8]: 44 µg/mL (≈ 116 µM)
Structure (SMILES): O=C(Nc1nc(=O)n(Cc2ccc(Cl)cc2)s1)c1ccc(Cl)cc1 [Compound 1, 4-chloro-N-[2-[(4-chlorophenyl)methyl]-3-oxo-1,2,4-thiadiazol-5-yl]benzamide]
Effect on pain (in words) ([5]; listed as compound of formula II): effective at treating pain; also recorded: capable of treating pain

Structure (SMILES): CN(C)C(=N)N=C(N)N [metformin]
Effect on pain (in words) [5]: effective at treating pain
